Test results as given in PMC6155576, “Anti-Neuroinflammatory ent-Kaurane Diterpenoids from Pteris multifida Roots” (Molecules : A Journal of Synthetic Chemistry and Natural …, 2016).

Columns and labels:
[1] = test system: NO production in LPS-activated BV-2 cells; experiment: NO production assay (Griess reagent) in LPS-activated BV-2 cells; assay type: cell-based; settings: Mus musculus; LPS-stimulated BV-2 cells; samples 1 h before 100 ng/mL LPS, 24 h incubation; read-out: IC50, concentration that caused 50% inhibition of NO production
Method: (§1) The BV-2 mouse microglial cells were generously provided by Dr. Sun Yeou Kim at Kyunghee University (Suwon, Korea). The cells were maintained in DMEM containing 10% FBS with 1% PS at 37 °C in a humidified atmosphere of 95% air and 5% CO2. All tested fractions and samples were dissolved in DMSO (final concentration in cultures ≤0.1%).
(§2) To evaluate NO production, we seeded BV-2 cells in 96-well plates (4 × 10^5 cells/mL) for 24 h and then treated them with various concentrations of the samples for 1 h before exposure to 100 ng/mL of LPS. After the 24 h incubation, the nitrite in the culture media was measured to assess NO production in the BV-2 cells with the Griess reagent (1% sulfanilamide and 0.1% naphtylethylenediamine dihydrochloride in 2% phosphoric acid). In 96-well plates, 100 μL of sample aliquots were mixed with 100 μL of Griess reagent and incubated at room temperature for 15 min. The absorbance at 550 nm was measured on a microplate reader. The concentration was determined with a nitrite standard curve. Cell viability was assessed by the MTT assay. After exposing the cells to 2 mg/mL MTT for 2 h, the absorbance was measured by an ELISA plate reader at 562 nm.

[2] = Cell viability by MTT assay; assay type: cell-based, mouse; settings: mouse, BV-2 microglial cells; MTT assay after treatment with 100 μM of each compound for 24 h; mean ± SD
Method: as §1, §2

[3] = test system: PGE2; experiment: PGE2 ELISA in LPS-activated BV-2 microglia; assay type: cell-based, mouse; settings: pre-treatment, dose-dependent, result in words
Method: (§3) BV-2 microglial cells were cultured in 96-well plates, preincubated for 30 min. with different concentrations of compounds 1 and 7 and then stimulated for 24 h with LPS (Sigma-Aldrich Co.). Supernatant from the culture (100 μL) was collected to determine the concentration of PGE2, TNF-α, IL-1β, and IL-6, respectively, with ELISA kits (TNF-α, Abcam, Cambridge, MA, USA; PGE2, IL-1β, and IL-6, R&D Systems, Minneapolis, MN, USA).

[4] = test system: IL-1β; experiment: IL-1β ELISA in LPS-activated BV-2 microglia; assay type: cell-based, mouse; settings: pre-treatment, dose-dependent, result in words
Method: as §3

[5] = test system: BV-2 cells; experiment: Cell viability by MTT assay; assay type: cell-based, mouse; settings: BV-2 cells, result in words
Method: as §1, §2

[6] = test system: IL-6; experiment: IL-6 ELISA in LPS-activated BV-2 microglia; assay type: cell-based, mouse; settings: pre-treatment, dose-dependent, result in words
Method: as §3

[7] = test system: TNF-α; experiment: TNF-α ELISA in LPS-activated BV-2 microglia; assay type: cell-based, mouse; settings: pre-treatment, dose-dependent, result in words
Method: as §3

[8] = test system: cyclooxygenase-2 (COX-2) protein expression; experiment: Western blot of COX-2 expression in LPS-activated BV-2 microglia; assay type: cell-based, mouse; settings: result in words
Method: Cells were harvested and lysed with radioimmunoprecipitation (RIPA) buffer (Bio-Rad, Hercules, CA USA). Cell lysates were centrifuged, and the supernatant was collected. The protein concentration was determined by protein assay reagents (Bio-Rad). The proteins were separated onto 10% SDS-polyacrylamide gel and transferred to polyvinylidene fluoride (PVDF) membrane. The membranes were blocked with 5% non-fat dry milk in Tris-buffered saline with 0.1% Tween-20 (TBS-T) buffer for 1 h at room temperature and then incubated with primary antibodies in TBS-T buffer containing 1% non-fat dry milk overnight at 4 °C. The membranes were washed with TBS-T buffer and incubated with goat anti-rabbit or anti-mouse horseradish peroxidase-conjugated IgG secondary antibodies from Santa Cruz Biotechnology (Santa Cruz, CA, USA) for 2 h. The membranes were washed with TBS-T buffer, and the antigen-antibody complex was detected with an enhanced chemiluminescence detection system (GE Healthcare, Milwaukee, MI, USA).

Row | Compound | IC50 [1] | viability at 24 h, 100 μM [2] | Level of PGE2 [3] | Level of IL-1β [4] | Cytotoxicity [5] | Level of IL-6 [6] | Level of TNF-α [7] | Protein level of COX-2 increased by LPS treatment [8]
1 | CC1(C)C[C@@H](O)C[C@]2(C)[C@@H]1CC[C@@]13C[C@@H](CC[C@H]12)[C@](C)(O)C3 [Compound 9, 2β,16α-dihydroxy-ent-kaurane] | 122 µM | 97.5 ± 1.3% |  |  |  |  |  | 
2 | C=C1[C@@H]2CC[C@H]3[C@]4(C)C[C@H](O)CC(C)(C)[C@H]4CC[C@]3(C2)[C@H]1O [Compound 1, 2β,15α-dihydroxy-ent-kaur-16-ene] | 13.9 µM | 90.7 ± 7.3% | effectively decreased | effectively decreased | without any cytotoxicity | effectively decreased | effectively decreased | down-regulated
3 | C=C1[C@@H]2CC[C@H]3[C@]4(C)C[C@H](O)CC(C)(C)[C@H]4CC[C@]3([C@@H]2O)[C@H]1O [Compound 7, pterokaurane P1] | 10.8 µM | 88.7 ± 2.4% | effectively decreased | effectively decreased | without any cytotoxicity | effectively decreased | effectively decreased | down-regulated
4 | CC1(C)C[C@@H](O[C@@H]2O[C@H](CO)[C@@H](O)[C@H](O)[C@H]2O)C[C@]2(C)[C@@H]1CC[C@@]13C[C@@H](CC[C@H]12)[C@@](O)(CO)C3 [Compound 12, 2β,16α,17-trihydroxy-ent-kaurane 2-O-β-D-glucopyranoside] | 114 µM | 93.6 ± 8.3% |  |  |  |  |  | 
5 | C[C@]1(CO)C[C@@H](O)C[C@]2(C)[C@@H]1CC[C@@]13C[C@@H](CC[C@H]12)[C@](C)(O)C3 [Compound 11, pterokaurane R] | 171 µM | 83.2 ± 10.2% |  |  |  |  |  | 
6 | COC(=O)[C@@H](N)CCCNC(N)=N[N+](=O)[O-] [L-NAME, Nω-nitro-L-arginine methyl ester, reference compound] | 53.5 µM | 100 ± 5% |  |  |  |  |  | 
7 | C=C1[C@@H]2CC[C@H]3[C@]4(C)C[C@H](O)C[C@](C)(CO)[C@H]4CC[C@]3(C2)[C@H]1O [Compound 3, pterokaurane M1] | 84 µM | 87.7 ± 2.9% |  |  |  |  |  | 
8 | CC1(C)C[C@@H](O[C@@H]2O[C@H](CO)[C@@H](O)[C@H](O)[C@H]2O)C[C@]2(C)[C@@H]1CC[C@@]13C[C@@H](CC[C@H]12)[C@](C)(O[C@@H]1O[C@H](CO)[C@@H](O)[C@H](O)[C@H]1O)C3 [Compound 10, 2β,16α-dihydroxy-ent-kaurane 2,16-di-O-β-D-glucopyranoside] | 182 µM | 88.2 ± 8% |  |  |  |  |  | 
9 | C=C1[C@@H]2CC[C@H]3[C@]4(C)C[C@H](O)CC(C)(C)[C@H]4[C@H](O)C[C@]3(C2)[C@H]1O [Compound 6, 2β,6β,15α-trihydroxy-ent-kaur-16-ene] | 137 µM | 85.9 ± 0.1% |  |  |  |  |  | 

More lines, main results first:

Row | IC50 [1] | Compound | viability at 24 h, 100 μM [2] | Level of PGE2 [3] | Level of IL-1β [4] | Cytotoxicity [5] | Level of IL-6 [6] | Level of TNF-α [7] | Protein level of COX-2 increased by LPS treatment [8]
10 | 101 µM | C=C1[C@@H]2CC[C@H]3[C@]4(C)C[C@H](O[C@@H]5O[C@H](CO)[C@@H](O)[C@H](O)[C@H]5O)CC(C)(C)[C@H]4CC[C@]3([C@@H]2O)[C@H]1O [Compound 8, pterokaurane P1 2-O-β-D-glucopyranoside] | 91.7 ± 3.7% |  |  |  |  |  | 
11 | 148 µM | C=C1[C@@H]2CC[C@H]3[C@]4(C)C[C@H](O[C@@H]5O[C@H](CO)[C@@H](O)[C@H](O)[C@H]5O)C[C@](C)(CO)[C@H]4CC[C@]3(C2)[C@H]1O [Compound 4, pterokaurane M1 2-O-β-D-glucopyranoside] | 90.5 ± 10.2% |  |  |  |  |  | 
12 | 92 µM | C=C1[C@@H]2CC[C@H]3[C@]4(C)C[C@H](O[C@@H]5O[C@H](CO)[C@@H](O)[C@H](O)[C@H]5O)CC(C)(C)[C@H]4CC[C@]3(C2)[C@H]1O [Compound 2, creticoside A] | 95.7 ± 4% |  |  |  |  |  | 
13 | 148 µM | C=C1[C@@H]2CC[C@H]3[C@]4(C)C[C@H](O[C@@H]5O[C@H](CO)[C@@H](O)[C@H](O)[C@H]5O)C[C@@](C)(CO)[C@H]4CC[C@]3(C2)[C@H]1O [Compound 5, 2β,15α,19-trihydroxy-ent-kaur-16-ene 2-O-β-D-gluco-pyranoside] | 73.6 ± 2.9% |  |  |  |  |  | 
